Test results from BigSolDB 2.1.

NS(=O)(=O)Cc1noc2ccccc12
solubility (mole fraction)
Settings	273.15 K	278.15 K	283.15 K	288.15 K	293.15 K	298.15 K	303.15 K	308.15 K	313.15 K
in 1,4-dioxane	–	–	–	0.024	0.0294	0.0354	0.0416	0.0488	0.0563
in 2-butanone	0.0132	0.0154	0.0179	0.0209	0.0244	0.0282	0.0319	0.0358	0.0399
in DMF	0.0192	0.0278	0.0374	0.0469	0.0575	0.0687	0.0812	0.0946	0.108
in acetonitrile	0.00562	0.00691	0.00821	0.00982	0.0114	0.0131	0.0149	0.0171	0.0191
in cyclohexanone	0.00739	0.00898	0.0109	0.0129	0.0155	0.0184	0.0218	0.0262	0.0307
in ethanol	0.00112	0.00135	0.00159	0.00188	0.00221	0.00255	0.0029	0.0033	0.00373
in ethyl acetate	0.00498	0.00558	0.00625	0.00704	0.00793	0.00882	0.0098	0.0108	0.0118
in isopropanol	0.000617	0.000791	0.000996	0.00122	0.00146	0.00173	0.00207	0.00241	0.00274
in methanol	0.00253	0.00274	0.00298	0.00326	0.00353	0.00387	0.00421	0.0046	0.005
in n-butanol	0.00017	0.00026	0.000383	0.000528	0.000721	0.00095	0.00122	0.00148	0.00178
in n-propanol	0.00041	0.000546	0.000697	0.000862	0.00105	0.00126	0.00149	0.00175	0.002
in toluene	3.56e-05	5.05e-05	6.73e-05	8.69e-05	0.000106	0.000131	0.00016	0.000193	0.00023
